Experimental data taken from patent US10787462B2, “Heterocyclic compound” (TAKEDA PHARMACEUTICAL COMPANY LIMITED, priority 2015, dated 2020).

target: T1, human RIPK1 (1-375) (Homo sapiens, UniProt Q13546); assay: Human RIPK1 enzyme inhibitory effect (ADP-Glo Kinase Assay); type: biochemical; conditions: 10 μM test compound; well without enzyme = 100% inhibition; 10 µM
T1 construct: human RIPK1 (1-375) gene; GST; made in house; host or cells: Sf-9 insect cells
T1 sequence (Q13546 1-375): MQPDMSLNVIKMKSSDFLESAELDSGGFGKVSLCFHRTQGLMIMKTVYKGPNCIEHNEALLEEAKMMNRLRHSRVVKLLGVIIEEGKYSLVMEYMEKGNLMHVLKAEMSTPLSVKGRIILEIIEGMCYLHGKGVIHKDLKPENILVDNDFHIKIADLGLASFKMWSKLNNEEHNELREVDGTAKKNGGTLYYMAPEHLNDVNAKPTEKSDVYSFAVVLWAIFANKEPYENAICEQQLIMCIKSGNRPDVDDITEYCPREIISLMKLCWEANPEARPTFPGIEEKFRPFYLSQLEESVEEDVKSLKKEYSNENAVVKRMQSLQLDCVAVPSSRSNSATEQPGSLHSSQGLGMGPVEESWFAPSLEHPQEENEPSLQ
Summary of the method: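 Human RIPK1 (1-375), GST-purified from Sf-9 cells, preincubated 20 min at room temperature with compound in 25 mM HEPES pH 7.5, 10 mM MgCl2, 0.01% Tween-20, 2 mM DTT. Reaction started with 0.6 mM ATP solution (stock), run 120 min at room temperature. ADP measured by ADP-Glo luminescence.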

Going from `CN1C(=O)C(N2CCc3c(nn(Cc4ccccc4F)c3Cl)C2=O)CCc2nn(C)cc21` (stereo not shown) [Example 120, 6-(3-chloro-2-(2-fluorobenzyl)-7-oxo-2,4,5,7-tetrahydro-6H-pyrazolo[3,4-c]pyridin-6-yl)-2,4-dimethyl-2,6,7,8-tetrahydropyrazolo[4,3-b]azepin-5(4H)-one] to `CN1C(=O)C(N2CCc3c(nn(Cc4ccccc4F)c3Cl)C2=O)CCc2c1cnn2C` (stereo not shown) [Example 131, 6-(3-chloro-2-(2-fluorobenzyl)-7-oxo-2,4,5,7-tetrahydro-6H-pyrazolo[3,4-c]pyridin-6-yl)-1,4-dimethyl-4,6,7,8-tetrahydropyrazolo[4,3-b]azepin-5(1H)-one], the “human RIPK1 enzyme inhibitory effect at 10 μM (% inhibition)” value rises from 95% to 100%.

Going from `CN1C(=O)C(N2CCc3c(nn(Cc4ccccc4F)c3Cl)C2=O)CCc2nn(C)cc21` (stereo not shown) [Example 121, 6-(3-chloro-2-(2-fluorobenzyl)-7-oxo-2,4,5,7-tetrahydro-6H-pyrazolo[3,4-c]pyridin-6-yl)-2,4-dimethyl-2,6,7,8-tetrahydropyrazolo[4,3-b]azepin-5(4H)-one] to `CN1C(=O)C(N2CCc3c(nn(Cc4ccccc4F)c3Cl)C2=O)CCc2c1cnn2C` (stereo not shown) [Example 132, 6-(3-chloro-2-(2-fluorobenzyl)-7-oxo-2,4,5,7-tetrahydro-6H-pyrazolo[3,4-c]pyridin-6-yl)-1,4-dimethyl-4,6,7,8-tetrahydropyrazolo[4,3-b]azepin-5(1H)-one], the “human RIPK1 enzyme inhibitory effect at 10 μM (% inhibition)” value rises from 86% to 89%.

`CN1C(=O)C(N2CCc3c(nn(Cc4ccccc4)c3Cl)C2=O)CCc2c1cnn2C` (stereo not shown) [Example 127, 6-(2-benzyl-3-chloro-7-oxo-2,4,5,7-tetrahydro-6H-pyrazolo[3,4-c]pyridin-6-yl)-1,4-dimethyl-4,6,7,8-tetrahydropyrazolo[4,3-b]azepin-5(1H)-one] and `CN1C(=O)C(N2CCc3c(nn(Cc4c(F)cccc4F)c3Cl)C2=O)CCc2c1cnn2C` (stereo not shown) [Example 133, 6-(3-chloro-2-(2,6-difluorobenzyl)-7-oxo-2,4,5,7-tetrahydro-6H-pyrazolo[3,4-c]pyridin-6-yl)-1,4-dimethyl-4,6,7,8-tetrahydropyrazolo[4,3-b]azepin-5(1H)-one] are the same in “human RIPK1 enzyme inhibitory effect at 10 μM (% inhibition)” value: 100% for the first, 100% for the second.

With `CN1C(=O)C(N2CCc3c(nn(Cc4ccccc4)c3Cl)C2=O)CCc2c1cnn2C` (stereo not shown) [Example 128, 6-(2-benzyl-3-chloro-7-oxo-2,4,5,7-tetrahydro-6H-pyrazolo[3,4-c]pyridin-6-yl)-1,4-dimethyl-4,6,7,8-tetrahydropyrazolo[4,3-b]azepin-5(1H)-one] the “human RIPK1 enzyme inhibitory effect at 10 μM (% inhibition)” value was 84%.

same assay, conditions: read-out: human RIPK1 enzyme inhibitory effect at 10 μM (% inhibition), 10 μM test compound; well without enzyme = 100% inhibition

`CNC(=O)c1ccc2c(c1)OC[C@H](N1CCc3c(nn(Cc4ccccc4F)c3C)C1=O)C(=O)N2C` [Example 115, (3S)-3-(2-(2-fluorobenzyl)-3-methyl-7-oxo-2,4,5,7-tetrahydro-6H-pyrazolo[3,4-c]pyridin-6-yl)-N,5-dimethyl-4-oxo-2,3,4,5-tetrahydro-1,5-benzoxazepine-8-carboxamide] and `CNC(=O)c1ccc2c(c1)OC[C@H](N1CCc3cn(Cc4ccccc4F)nc3C1=O)C(=O)N2C` [Example 117, (3S)-3-(2-(2-fluorobenzyl)-7-oxo-2,4,5,7-tetrahydro-6H-pyrazolo[3,4-c]pyridin-6-yl)-N,5-dimethyl-4-oxo-2,3,4,5-tetrahydro-1,5-benzoxazepine-8-carboxamide] are the same in inhibition at 10 µM: 101% for the first, 101% for the second.

`CNC(=O)c1ccc2c(c1)OC[C@H](N1CCc3cn(Cc4c(F)cccc4F)nc3C1=O)C(=O)N2C` [Example 116, (3S)-3-(2-(2,6-difluorobenzyl)-7-oxo-2,4,5,7-tetrahydro-6H-pyrazolo[3,4-c]pyridin-6-yl)-N,5-dimethyl-4-oxo-2,3,4,5-tetrahydro-1,5-benzoxazepine-8-carboxamide] and `CNC(=O)c1cc2c(cc1F)N(C)C(=O)[C@@H](N1CCc3c(nn(Cc4ccccc4)c3Cl)C1=O)CO2` [Example 122, (3S)-3-(2-benzyl-3-chloro-7-oxo-2,4,5,7-tetrahydro-6H-pyrazolo[3,4-c]pyridin-6-yl)-7-fluoro-N,5-dimethyl-4-oxo-2,3,4,5-tetrahydro-1,5-benzoxazepine-8-carboxamide] are the same in inhibition at 10 µM: 101% for the first, 101% for the second.

`CN1C(=O)[C@@H](N2CCc3c(nn(Cc4ccccc4)c3Cl)C2=O)COc2cc(C(=O)NC3COC3)ccc21` [Example 118, (3S)-3-(2-benzyl-3-chloro-7-oxo-2,4,5,7-tetrahydro-6H-pyrazolo[3,4-c]pyridin-6-yl)-5-methyl-N-(oxetan-3-yl)-4-oxo-2,3,4,5-tetrahydro-1,5-benzoxazepine-8-carboxamide] and `CN1C(=O)[C@@H](N2CCc3c(nn(Cc4ccccc4)c3OC(F)F)C2=O)COc2cc(Br)ccc21` [Example 123, (3S)-3-(2-benzyl-3-(difluoromethoxy)-7-oxo-2,4,5,7-tetrahydro-6H-pyrazolo[3,4-c]pyridin-6-yl)-8-bromo-5-methyl-2,3-dihydro-1,5-benzoxazepin-4(5H)-one] are the same in inhibition at 10 µM: 98% for the first, 98% for the second.

Compared with `CN1C(=O)C(N2CCc3c(nn(Cc4ccccc4F)c3Cl)C2=O)CCc2nn(C)cc21` (stereo not shown) [Example 119, 6-(3-chloro-2-(2-fluorobenzyl)-7-oxo-2,4,5,7-tetrahydro-6H-pyrazolo[3,4-c]pyridin-6-yl)-2,4-dimethyl-2,6,7,8-tetrahydropyrazolo[4,3-b]azepin-5(4H)-one], `CN1C(=O)C(N2CCc3c(nn(Cc4ccccc4F)c3Cl)C2=O)CCc2c1cnn2C` (stereo not shown) [Example 129, 6-(3-chloro-2-(2-fluorobenzyl)-7-oxo-2,4,5,7-tetrahydro-6H-pyrazolo[3,4-c]pyridin-6-yl)-1,4-dimethyl-4,6,7,8-tetrahydropyrazolo[4,3-b]azepin-5(1H)-one] is higher in inhibition at 10 µM: 97% for the first, 98% for the second.

Going from `CN1C(=O)[C@@H](N2CCc3c(nn(Cc4ccccc4)c3OC(F)F)C2=O)COc2cc(C#N)ccc21` [Example 124, (32)-3-(2-benzyl-3-(difluoromethoxy)-7-oxo-2,4,5,7-tetrahydro-6H-pyrazolo[3,4-c]pyridin-6-yl)-5-methyl-4-oxo-2,3,4,5-tetrahydro-1,5-benzoxazepine-8-carbonitrile] to `CN1C(=O)[C@@H](N2CCc3c(nn(Cc4ccccc4)c3Cl)C2=O)COc2cc(-c3ccn(C)n3)c(F)cc21` [Example 125, (3S)-3-(2-benzyl-3-chloro-7-oxo-2,4,5,7-tetrahydro-6H-pyrazolo[3,4-c]pyridin-6-yl)-7-fluoro-5-methyl-8-(1-methyl-1H-pyrazol-3-yl)-2,3-dihydro-1,5-benzoxazepin-4(5H)-one], the inhibition at 10 µM rises from 98% to 101%.

First: CN1C(=O)C(N2CCc3c(nn(Cc4ccccc4)c3Cl)C2=O)CCc2c1cnn2C (stereo not shown) [Example 126, 6-(2-benzyl-3-chloro-7-oxo-2,4,5,7-tetrahydro-6H-pyrazolo[3,4-c]pyridin-6-yl)-1,4-dimethyl-4,6,7,8-tetrahydropyrazolo[4,3-b]azepin-5(1H)-one]
Second: CN1C(=O)C(N2CCc3c(nn(Cc4c(F)cccc4F)c3Cl)C2=O)CCc2c1cnn2C (stereo not shown) [Example 130, 6-(3-chloro-2-(2,6-difluorobenzyl)-7-oxo-2,4,5,7-tetrahydro-6H-pyrazolo[3,4-c]pyridin-6-yl)-1,4-dimethyl-4,6,7,8-tetrahydropyrazolo[4,3-b]azepin-5(1H)-one]
The inhibition at 10 µM of the first is lower: 98% for the first, 100% for the second.
